The values below come from patent US20200377518A1, “METHOD OF PREVENTING AND TREATING THROMBOSIS” (Rigel Pharmaceuticals, Inc., priority 2019, published 2020).

In series [1] the target is IgE- and IgG-mediated activation of Fc receptor signaling. The conditions noted are these: read-out: EC50 for degranulation; cited from earlier work.
In series [2] the test system is monocytes/macrophages, neutrophils, B lymphocytes. The conditions noted are these: cited from earlier work.
The test system of series [3] is ITP patients. Nature of the series: Fostamatinib in immune thrombocytic purpura (ITP) patients. In kind it is in vivo, human.
The test system of series [4] is Transgenic HIT mice homozygous for both FcγRIIA and human PF4 and null for mouse PF4. Nature of the series: Inhibition of thrombosis in vivo, transgenic HIT mice, lung thrombi. The note with it: chow containing 0.5, 1 and 2 g/kg of R788 for 3 days, KKO or HIT-IgG, then heparin, lungs 3 hours later. From the text: Transgenic HIT mice homozygous for both FcγRIIA and human PF4 and null for mouse PF4 are used to evaluate the effects of fostamatinib on immune complexes (IC)-induced thrombocytopenia and thrombosis. 6-12 weeks old transgenic male mice are fed the control chow or chow containing 0.5, 1 and 2 g/kg of R788 for 3 days prior to the injection of either the monoclonal HIT-like antibody KKO or IgG from HIT patients (HIT-IgG). For HIT-induced thrombocytopenia experiments, all mice received heparin subcutaneously at 1600 U/kg body weight once daily for 6 days, starting with first day after antibody injection. Retro-orbital blood collection is performed daily after anesthetizing the animals starting a day before HIT antibody injection to monitor thrombocytopenia by counting platelets using standard equipment.
To assess fostamatinib effect on thrombosis, the mice are fed with drug or vehicle chow followed by injection of the HIT antibodies as described. Next day, each animal is retro-orbitally infused with 1×10^8 Alexa750-labeled platelets from untreated syngeneic donor mice prior to heparin injection. Animals are terminated 3 hours later, their lungs are excised, perfused with PBS, fixed with 7% paraformaldehyde and imaged using Odyssey Imaging System (LI-COR Bio). Thrombi are counted and scored by intensity using NIS Elements software (Nikon). […]

In series [5] the test system is C57Bl/6 WT male mice. Nature of the series: Deep vein thrombosis, inferior vena cava (IVC) stenosis model. In kind it is in vivo. The note with it: fostamatinib chow for 3 days; 48 hours after the surgery. How it is done:
Mice are fed fostamatinib or vehicle chow for 3 days, anaesthetized using isoflurane and then subjected to laparotomy. After tying off the side branches of the IVC, the IVC is stenosed with a ligature and a 30-gauge spacer to maintain a small degree of blood flow. Mice are allowed to recover, then culled 48 hours after the surgery and the IVC are examined for the presence and size of thrombus.
For deep vein thrombosis assay methods generally, see, Low dose Btk inhibitors selectively block platelet activation by CLEC-2. Phillip L. R. Nicolson et al. Haematologica 2020 Jan. 16. pii: haematol. 2019.218545. doi: 10.3324/haematol.2019.218545

The test system of series [6] is C57Bl6 mice. The experiment in a line: Arterial thrombosis, ferric chloride injury model of carotid artery. In kind it is in vivo. The note with it: fostamatinib chow for 3 days; FeCl3 on carotid artery. On the procedure:
To investigate effect on arterial thrombosis, a ferric chloride injury model in mice is employed. 8-week-old C57Bl6 mice are fed fostamatinib or vehicle chow for 3 days, anaesthetized using mixture of ketamine (100 mg/kg)/xylazine (10 mg/kg) via intraperitoneal injection and have their right jugular vein exposed. Next, rhodamine 6G solution is injected into the right jugular vein to label platelets, exposed carotid artery (CA) staged at the microscope and the thrombosis is induced by applying a piece of filter paper (1×2 mm) saturated with FeCl3 solution directly on the CA. Thrombus formation is identified by accumulation of the fluorescent platelets, which is observed in real-time recording video images under the microscope.
For arterial thrombosis assay methods generally, see, Wei Li, Thomas M. McIntyre, Roy L. Silverstein. Ferric chloride-induced murine carotid arterial injury: A model of redox pathology. Redox Biology 1 (2013) 50-55, and Wei Li, Marvin Nieman, Anirban Sen Gupta. Ferric Chloride-induced Murine Thrombosis Models. J. Vis. Exp. (115), e54479, doi:10.3791/54479 (2016).

Turning to `COc1cc(Nc2ncc(F)c(Nc3ccc4c(n3)NC(=O)C(C)(C)O4)n2)cc(OC)c1OC` [R406, 6-((5-fluoro-2-((3,4,5-trimethoxyphenyl)amino)pyrimidin-4-yl)amino)-2,2-dimethyl-2H-pyrido[3,2-b][1,4]oxazin-3(4H)-one], the EC50 in series [1] is 0.056 to 0.064 µM. For the same molecule, in series [2], the “BCR-mediated activation of B lymphocytes” value is reported as “blocked”; the “Syk-dependent FcR-mediated activation of monocytes/macrophages and neutrophils” value is “blocked”.
On to `COc1cc(Nc2ncc(F)c(Nc3ccc4c(n3)N(COP(=O)(O)O)C(=O)C(C)(C)O4)n2)cc(OC)c1OC` [fostamatinib, [6-({5-Fluoro-2-[(3,4,5-trimethoxyphenyl)amino]-4-pyrimidinyl}amino)-2,2-dimethyl-3-oxo-2,3-dihydro-4H-pyrido[3,2-b][1,4]oxazin-4-yl]methyl dihydrogen phosphate], for which, in series [3], the platelet levels result was “increases platelet levels” and the risk of thrombosis result is “does not appear to increase risk of thrombosis”. In addition, the “heparin induced thrombosis (lung thrombi counted and scored by intensity)” value in series [4] was “effectively reduces heparin induced thrombosis”. Further, the “heparin induced thrombosis (lung thrombi counted and scored by intensity)” value in series [4] (listed as R788) is “inhibits thrombosis in vivo”. Also, in series [5], the “presence and size of thrombus in IVC” value was “Relative lack of thrombus”. Besides, the “arterial thrombus formation (accumulation of fluorescent platelets)” value in series [6] is “Lack of thrombus formation”.
